Laboratory results: PubChem BioAssay (NCI)
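The compound was tested at five concentrations on cells cultured in 96-well plates, with a 48-hour exposure period. TGI: total growth inhibition.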

How the values were obtained:
Experiment in all cases: DTP human tumour cell line panel, 48 h
[1] = tested on: SK-MEL-2 melanoma
[2] = tested on: MDA-MB-231 breast
[3] = tested on: MDA-N
[4] = tested on: NCI-H460 lung
[5] = tested on: 786-0 renal
[6] = tested on: T-47D breast
[7] = tested on: OVCAR-3 ovarian
[8] = tested on: U251 CNS
[9] = tested on: EKVX NSCLC
[10] = tested on: SR leukemia
[11] = tested on: SF-268 CNS

Structure (SMILES) | TGI [1] [µM] | TGI [2] [µM] | TGI [3] [µM] | TGI [4] [µM] | TGI [5] [µM] | TGI [6] [µM] | TGI [7] [µM] | TGI [8] [µM] | TGI [9] [µM] | TGI [10] [µM] | TGI [11] [µM]
C=C1C[C@@H](O)[C@@H](Br)C(C)(C)[C@@]12C=CC(=O)CC2 | > 100 | > 100 | > 100 | > 100 | > 100 | > 100 | > 100 | > 100 | > 51.8 | > 100 | > 100
CC(=O)C(C(=O)c1ccc(C)cc1)[C@H]1OC(C)(C)O[C@H]1[C@H]1COC(C)(C)O1 (stereo partly specified) | 9.52 | 13.6 | 6.63 | 17.2 | 8.75 | 18.9 |  | 7 | 11.7 | > 50 | 28.5
O=c1[nH]nc(-c2ccccc2)n1/N=C/c1ccccc1O | > 100 | > 100 | > 100 | > 100 | > 100 | > 100 | > 100 | > 100 | > 100 | > 100 | > 100
CC1CN=C(Nc2cccc(F)c2)S1 (stereo unspecified) | > 100 | 25.2 | > 100 |  | > 100 | > 100 | > 100 | > 100 | > 100 | > 100 | > 100
CCOC(=O)c1sc2c(c1OC(=O)c1cc(OC)c(OC)c(OC)c1)c(=O)n(-c1ccccc1)c(=S)n2-c1ccccc1 |  | > 100 | > 100 | > 100 | > 100 | > 100 | > 100 | > 100 | > 100 |  | > 100
O=C(N=Nc1ccc(Cl)cc1Cl)NNc1ccc(Cl)cc1Cl | 27 | 57.8 | 35.1 | 33.4 | 32.6 | 77.3 | 33.6 | 36.2 |  | 78.3 | 97.5
COc1cc(/C=N/N=C(\N)NO)cc(OC)c1OC | > 100 | > 100 |  | > 100 | 39.2 | > 100 | > 100 | > 100 | > 100 | 71.2 | > 100
N=c1oc2ccccc2cc1-c1nc2ccccc2[nH]1 | > 100 | 57.6 | 40.5 | > 100 | 28.8 | > 100 |  | > 100 | 41.1 | > 100 | > 100
COc1ccc(-c2c(-c3ccc(OC)cc3)n3c(=O)n(C)c(=O)n23)cc1 | > 100 | > 100 |  |  | > 100 | 57.1 | 51.6 | > 100 | > 100 |  | 
COc1ccc(C2=[S+]C(c3ccccc3)(c3ccccc3)c3ccccc32)cc1 | 33.3 | 61.1 | 54.5 | 30.5 | 34.9 | 84.3 | 43.6 | 45.3 | > 100 |  | > 100
COc1ccc2cc(CNCCCCCCCCNCc3ccc4cc(OC)ccc4c3)ccc2c1 | 24.7 | > 100 |  | 33.9 | > 100 | 91 | 9.86 | 6.66 |  | 2.76 | 
CC[C@@H](CCCCC1CC[C@H]2CC(=O)C[C@@H]12)OC (stereo partly specified) | > 100 | > 100 | > 100 | > 100 | > 100 |  | > 100 | > 100 | > 100 | > 100 | > 100
C1CCCCC2(CCCCCCCCC3(CCC1)SCCS3)SCCS2 | > 100 |  | > 100 | > 100 | > 100 | > 100 | > 100 | > 100 | > 100 | > 100 | > 100
CC12CC(=O)Nc3ccccc3N1C(c1ccccc1)=NO2 (stereo unspecified) | > 100 | > 100 | > 100 | > 100 | > 100 |  | > 100 | > 100 | > 100 | > 100 | > 100
CCCCc1ccc(-n2sc3ncc(-c4ccccc4)cc3c2=O)cc1 | > 100 |  | > 100 | > 100 | > 100 | 69.5 | > 100 | > 100 | > 100 | > 100 | 
COc1ccc(-c2c(-c3ccccc3)c(C)c3ccccn23)cc1 | > 100 | > 100 | > 100 | > 100 | > 100 | > 100 | > 100 | > 100 | > 100 | > 100 | 
O=c1oc(-c2ccc(O)cc2)cc2cc(O)ccc12 | > 100 |  |  | 58.2 | > 100 | 49 | > 100 |  | > 100 |  | 97.6
O=C1NC(Nc2ccccc2)=N/C1=C\c1c(Cl)cccc1Cl | 49 |  | 60.9 | > 100 | 29.6 | > 100 | > 100 | 37.6 | 47.3 | > 100 | > 100
COc1ccc2oc(S(=O)(=O)N3CC(CCl)c4ccc(N)cc43)cc2c1 (stereo unspecified) | > 100 | > 24.9 | > 100 | 10.6 | > 10.6 | > 100 | > 100 | > 100 | > 100 |  | > 100
O=C(Nc1cccc(F)c1)c1cc2ccc(O)cc2oc1=Nc1cccc(F)c1 | > 100 |  | > 100 | > 100 | > 100 | 42.2 | > 100 | > 100 | 26.3 | > 100 | > 100
N#CCCN(CCC#N)c1ccc(/C=C2\N=C(c3ccccc3)N(c3ccc(C(=O)O)cc3)C2=O)cc1 | > 100 | > 100 | > 100 | > 100 | > 100 | > 100 | > 100 | > 100 | > 100 |  | 61.6
CCC(C)C(N)C(=O)N/N=C\c1c2c(nc3ccccc13)-c1cc3c(c(=O)n1C2)COC(=O)[C@]3(O)CC (stereo partly specified) | 6.59 | > 82.2 | > 100 | 1.5 | 1.12 | 0.188 | 8.95 | 0.669 | > 100 |  | 
